Values joined by “and” are separate entries in the source; they are usually repeats but may differ in a detail not shown here. Equal entries are not always repeated. Toxic doses and inconclusive results are not listed. The calls were made as follows: active = survival T/C of 150% or more; inactive = T/C below 125% in these data.
Tested on: CD2F1 mice, L1210 leukemia ip, survival T/C
Assay: NCI In Vivo Anticancer Drug Screen. Data for tumor model L1210 Leukemia (intraperitoneal) in CD2F1 (CDF1) mice
Conditions: endpoint: mean survival time, higher = longer survival
How it was run: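 Transplantable tumor in mice; compound-treated vs vehicle-treated groups. Read-out = treated/control ratio of the measured endpoint.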

[1] = dose: 100.0 mg/kg/injection, schedule: Q04DX002 (ip), vehicle: saline with Tween-80
[2] = dose: 200.0 mg/kg/injection, schedule: Q04DX002 (ip), vehicle: saline with Tween-80
[3] = dose: 400.0 mg/kg/injection, schedule: Q04DX002 (ip), vehicle: saline with Tween-80
[4] = dose: 50.0 mg/kg/injection, schedule: Q04DX002 (ip), vehicle: saline with Tween-80
[5] = dose: 100.0 mg/kg/injection, schedule: Q04DX003 (ip), vehicle: saline with Tween-80
[6] = dose: 200.0 mg/kg/injection, schedule: Q04DX003 (ip), vehicle: saline with Tween-80
[7] = dose: 400.0 mg/kg/injection, schedule: Q04DX003 (ip), vehicle: saline with Tween-80

Measured: T/C

OC1C(I)CC(Cl)C2CCC[N-]C12.OC1C(I)CC(Cl)C2CCC[N-]C12.[Cu+2] (stereo not given)
inactive: [1] 96 % of control | [2] 92 % of control | [3] 88 % of control

N#CC(=N)C(C#N)C#N
inactive: dose: 12.5 mg/kg/injection, schedule: Q04DX002 (ip), vehicle: saline with Tween-80 93 % of control | dose: 25.0 mg/kg/injection, schedule: Q04DX002 (ip), vehicle: saline with Tween-80 93 % of control | [4] 108 % of control

CCc1ccc(NN=Nc2ccccc2C#N)cc1
inactive: [5] 95 % of control | [6] 95 % of control | [7] 98 % of control

CCOC(=O)C(C(=O)OCC)C1CCS(=O)(=O)C1 (stereo not given)
inactive: [5] 95 % of control | [6] 97 % of control | [7] 95 % of control

O=S1(=O)CCCCN1c1ccccn1
inactive: [1] 102 % of control | [2] 94 % of control | [3] 105 % of control

CC(=O)NC1(C(=O)O)SCCCS1
inactive: [4] 92 % of control | [1] 100 % of control | [3] 89 % of control

C#CC(C)(C)OC(O)C(Cl)(Cl)Cl (stereo not given)
inactive: [1] 91 % of control | [2] 91 % of control | [3] 106 % of control

CC1(O)CC2C=CC1CC2 (stereo not given)
inactive: [5] 101 % of control | [6] 104 % of control | [7] 95 % of control

O=C(O)c1ccccc1SCCO
inactive: dose: 100.0 mg/kg/injection, schedule: Q01DX001 (ip), vehicle: Klucel (hydroxypropylcellulose) (HPC) 93 % of control | dose: 200.0 mg/kg/injection, schedule: Q01DX001 (ip), vehicle: Klucel (hydroxypropylcellulose) (HPC) 102 % of control | dose: 400.0 mg/kg/injection, schedule: Q01DX001 (ip), vehicle: Klucel (hydroxypropylcellulose) (HPC) 104 % of control

O=C1C=C(O)c2ccccc2C1=O
inactive: dose: 25.0 mg/kg/injection, schedule: Q01DX001 (ip), vehicle: saline 106 % of control | dose: 50.0 mg/kg/injection, schedule: Q01DX001 (ip), vehicle: saline 106 % of control | dose: 100.0 mg/kg/injection, schedule: Q01DX001 (ip), vehicle: saline 102 % of control

O=C(O)c1ccc([As](=O)(O)O)cc1
inactive: dose: 6.25 mg/kg/injection, schedule: Q01DX009 (ip), vehicle: Klucel (hydroxypropylcellulose) (HPC) 102 % of control | dose: 12.5 mg/kg/injection, schedule: Q01DX009 (ip), vehicle: Klucel (hydroxypropylcellulose) (HPC) 98 % of control | dose: 25.0 mg/kg/injection, schedule: Q01DX009 (ip), vehicle: Klucel (hydroxypropylcellulose) (HPC) 87 % of control and 92 % of control

O=c1[nH]nc(OCc2ccccc2)c2ncn(Cc3ccccc3)c12
inactive: dose: 12.5 mg/kg/injection, schedule: Q01DX005 (ip), vehicle: other 91 % of control | dose: 100.0 mg/kg/injection, schedule: Q01DX005 (ip), vehicle: other 88 % of control | dose: 200.0 mg/kg/injection, schedule: Q01DX005 (ip), vehicle: other 86 % of control

O=C(COc1ccc(Cl)c(Cl)c1)Nc1ccc[n+](Cc2ccccc2)c1
inactive: dose: 12.5 mg/kg/injection, schedule: Q04DX003 (ip), vehicle: saline with Tween-80 104 % of control | dose: 25.0 mg/kg/injection, schedule: Q04DX003 (ip), vehicle: saline with Tween-80 98 % of control | dose: 50.0 mg/kg/injection, schedule: Q04DX003 (ip), vehicle: saline with Tween-80 89 % of control

c1ccc(-c2ccc(C3=NC(c4ccccc4)N4C3C4c3ccccc3)cc2)cc1 (stereo not given)
inactive: dose: 6.25 mg/kg/injection, schedule: Q01DX001 (ip), vehicle: saline with Tween-80 103 % of control | dose: 6.25 mg/kg/injection, schedule: Q01DX009 (ip), vehicle: saline with Tween-80 91 % of control | dose: 12.5 mg/kg/injection, schedule: Q01DX001 (ip), vehicle: saline with Tween-80 86 % of control | dose: 12.5 mg/kg/injection, schedule: Q01DX009 (ip), vehicle: saline with Tween-80 94 % of control | dose: 25.0 mg/kg/injection, schedule: Q01DX001 (ip), vehicle: saline with Tween-80 92 % of control

O=C(C1=CCCCC1)c1ccc(-c2ccccc2)cc1
inactive: dose: 100.0 mg/kg/injection, schedule: Q01DX009 (ip), vehicle: saline with Tween-80 102 % of control | [5] 95 % of control | dose: 200.0 mg/kg/injection, schedule: Q01DX009 (ip), vehicle: saline with Tween-80 91 % of control | [6] 95 % of control | dose: 400.0 mg/kg/injection, schedule: Q01DX009 (ip), vehicle: saline with Tween-80 96 % of control | [7] 93 % of control

— PubChem BioAssay AID256 (DTP/NCI, 2004)
